Test [1] deals with Cotton Aphid (Aphis gossypii). Briefly: Cotton Aphid cotyledon dip test on cotton plants. The test is classed as in vivo. To be noted: 120 h, cotton cotyledons dipped, mortality counts after 5 days, read-out: mortality in comparison with untreated controls. The text has this: Cotton Aphid (Aphis gossypii)
(§1) The active compounds were formulated in 50:50 acetone:water and 100 ppm Kinetic® surfactant.
Cotton plants in the cotyledon stage (variety ‘Delta Pine’, one plant per pot) were infested by placing a heavily infested leaf from the main colony on top of each cotyledons. The aphids were allowed to transfer to the host plant overnight, and the leaf used to transfer the aphids was removed. The cotyledons were dipped in the test solution and allowed to dry. After 5 days, mortality counts were made.

Test [2] relates to Bean Aphid (Aphis fabae). Put plainly: Bean Aphid plant dip test on nasturtium plants. In kind it is in vivo. As to conditions: 72 h, nasturtium plants dipped, aphid mortality after 3 days, read-out: mortality in comparison with untreated controls.
Text: as §1
Nasturtium plants grown in Metro mix in the 1st leaf-pair stage (variety ‘Mixed Jewel’) were infested with approximately 20-30 laboratory-reared aphids by placing infested cut plants on top of the test plants. The cut plants were removed after 24 hr. Each plant was dipped into the test solution to provide complete coverage of the foliage, stem, protruding seed surface and surrounding cube surface and allowed to dry in the fume hood. The treated plants were kept at about 25° C. with continuous fluorescent light. Aphid mortality is determined after 3 days.

For test [3], the system named is Green Peach Aphid (Myzus persicae). Briefly: Green Peach Aphid foliar dip test on pepper plants. The test is classed as in vivo. To be noted: 120 h, pepper plant leaves dipped, aphid mortality after 5 days, read-out: mortality in comparison with untreated controls.
Text: Green Peach Aphid (Myzus persicae)
as §1
Pepper plants in the 2nd leaf-pair stage (variety ‘California Wonder’) were infested with approximately 40 laboratory-reared aphids by placing infested leaf sections on top of the test plants. The leaf sections were removed after 24 hr. The leaves of the intact plants were dipped into gradient solutions of the test compound and allowed to dry. Test plants were maintained under fluorescent light (24 hour photoperiod) at about 25° C. and 20-40% relative humidity. Aphid mortality on the treated plants, relative to mortality on check plants, was determined after 5 days.

In test [4] the test system is cotton aphids (Aphis gossypil). Briefly: Cotton seed treatment, control of foliar aphids. As to conditions: live aphids counted four days after infestation, versus solvent blank controls. The test is classed as in vivo, Aphis gossypii. The protocol: Experimental compound no. 1 (N,N-Dimethyl-2-cyano-3-difluoromethoxyphenylsulfonamide) was evaluated to determine their insecticidal efficacy for control of foliar aphids when applied as seed treatment.
Experimental compound no. 1 was formulated by dissolving 10.5 mg technical material in 45 μl acetone then adding 255 μl 0.05% aqueous TWEEN 20 (polyoxyethylene (20) sorbitan monolaurate).
Twenty-five cotton seeds (variety Sure-Grow 747) were placed in a 20-ml glass vial and then 150 μl of the compound formulation were pipetted onto the side of the vial just above the seeds. Vials were vortexed for 30 seconds to rapidly spin the seeds within the vial to apply the compound to the seeds. Treated seeds were then air-dried. […]
Twenty-four cotton seeds were planted in Metro Mix potting mix in twelve 7.6-cm-square pots, 2 seeds per pot. Crop selectivity was determined by comparing seedling emergence and recording any foliar and shoot symptoms.
Seedling plants were thinned to one plant per pot. […] The exact number of aphids transferred to each plant was recorded.
Four days after infestation, live aphids on each plant were counted. The aphid population increase for each control plant was calculated by dividing the final aphid population by the initial population. The median aphid population increase on the solvent blank controls was then calculated. […]

The record followed here is patent US7563921B2, “2-cyano-3(halo)alkoxy-benzenesulfonamide compounds for combating animal pests” (BASF Aktiengesellschaft, priority 2004, dated 2009).

Where only a bound is given, the exact number is not on record here.

Turning to `COc1cccc(S(=O)(=O)N(C)C)c1C#N` [Compound 2, N,N-Dimethyl-2-cyano-3-methoxyphenylsulfonamide], the mortality at 300 ppm in test [1], in test [2] and in test [3] was above 85% in each case.

Consider `CN(C)S(=O)(=O)c1cccc(OC(F)F)c1C#N` [Compound 1, N,N-Dimethyl-2-cyano-3-difluoromethoxyphenylsulfonamide], for which the mortality at 300 ppm in test [1], in test [2] and in test [3] was above 85% in each case. For the same molecule, in test [4], the “reduction of the aphid population” value was “significant reduction of the aphid population”.

A word on the mortality: it is the share of the test organisms that died.
